Measurements reported in ChEMBL document CHEMBL4507278 (2021).

Columns and labels:
[1] = biological target: 3-phosphoinositide-dependent protein kinase 1 (Homo sapiens) (UniProt O15530); conditions: Compound concentration 1000.0 nM
[2] = biological target: Serine/threonine-protein kinase LATS2 (Homo sapiens) (UniProt Q9NRM7); conditions: Compound concentration 1000.0 nM
[3] = biological target: Tyrosine-protein kinase HCK (Homo sapiens) (UniProt P08631); conditions: Compound concentration 1000.0 nM
[4] = biological target: Macrophage-stimulating protein receptor (Homo sapiens) (UniProt Q04912); conditions: Compound concentration 1000.0 nM
[5] = biological target: Protein kinase C theta type (Homo sapiens) (UniProt Q04759); conditions: Compound concentration 1000.0 nM
[6] = biological target: TGF-beta receptor type-1 (Homo sapiens) (UniProt P36897); conditions: Compound concentration 1000.0 nM
[7] = biological target: Protein kinase C eta type (Homo sapiens) (UniProt P24723); conditions: Compound concentration 1000.0 nM
Sequence of Protein kinase C eta type (Homo sapiens) (P24723 whole entry): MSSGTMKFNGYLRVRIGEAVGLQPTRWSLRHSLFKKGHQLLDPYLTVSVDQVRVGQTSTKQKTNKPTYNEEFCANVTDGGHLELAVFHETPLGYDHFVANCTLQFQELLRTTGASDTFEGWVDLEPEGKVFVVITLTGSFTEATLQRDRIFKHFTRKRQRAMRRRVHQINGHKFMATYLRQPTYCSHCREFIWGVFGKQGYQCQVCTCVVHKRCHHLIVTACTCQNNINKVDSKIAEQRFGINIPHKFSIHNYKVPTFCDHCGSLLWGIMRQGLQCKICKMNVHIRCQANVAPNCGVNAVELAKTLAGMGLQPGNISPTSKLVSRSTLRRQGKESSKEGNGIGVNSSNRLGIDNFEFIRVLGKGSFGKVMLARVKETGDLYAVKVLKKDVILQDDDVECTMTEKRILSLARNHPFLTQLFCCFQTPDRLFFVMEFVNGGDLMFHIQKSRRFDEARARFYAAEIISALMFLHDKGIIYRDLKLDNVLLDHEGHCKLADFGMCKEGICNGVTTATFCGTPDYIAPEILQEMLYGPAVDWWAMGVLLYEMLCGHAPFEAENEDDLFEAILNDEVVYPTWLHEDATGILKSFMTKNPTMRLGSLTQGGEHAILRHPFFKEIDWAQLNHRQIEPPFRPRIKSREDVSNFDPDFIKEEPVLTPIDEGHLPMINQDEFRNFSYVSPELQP

[8] = biological target: Mitogen-activated protein kinase kinase kinase 19 (Homo sapiens) (UniProt Q56UN5); conditions: Compound concentration 1000.0 nM
Sequence of Mitogen-activated protein kinase kinase kinase 19 (Homo sapiens) (Q56UN5 whole entry, canonical isoform): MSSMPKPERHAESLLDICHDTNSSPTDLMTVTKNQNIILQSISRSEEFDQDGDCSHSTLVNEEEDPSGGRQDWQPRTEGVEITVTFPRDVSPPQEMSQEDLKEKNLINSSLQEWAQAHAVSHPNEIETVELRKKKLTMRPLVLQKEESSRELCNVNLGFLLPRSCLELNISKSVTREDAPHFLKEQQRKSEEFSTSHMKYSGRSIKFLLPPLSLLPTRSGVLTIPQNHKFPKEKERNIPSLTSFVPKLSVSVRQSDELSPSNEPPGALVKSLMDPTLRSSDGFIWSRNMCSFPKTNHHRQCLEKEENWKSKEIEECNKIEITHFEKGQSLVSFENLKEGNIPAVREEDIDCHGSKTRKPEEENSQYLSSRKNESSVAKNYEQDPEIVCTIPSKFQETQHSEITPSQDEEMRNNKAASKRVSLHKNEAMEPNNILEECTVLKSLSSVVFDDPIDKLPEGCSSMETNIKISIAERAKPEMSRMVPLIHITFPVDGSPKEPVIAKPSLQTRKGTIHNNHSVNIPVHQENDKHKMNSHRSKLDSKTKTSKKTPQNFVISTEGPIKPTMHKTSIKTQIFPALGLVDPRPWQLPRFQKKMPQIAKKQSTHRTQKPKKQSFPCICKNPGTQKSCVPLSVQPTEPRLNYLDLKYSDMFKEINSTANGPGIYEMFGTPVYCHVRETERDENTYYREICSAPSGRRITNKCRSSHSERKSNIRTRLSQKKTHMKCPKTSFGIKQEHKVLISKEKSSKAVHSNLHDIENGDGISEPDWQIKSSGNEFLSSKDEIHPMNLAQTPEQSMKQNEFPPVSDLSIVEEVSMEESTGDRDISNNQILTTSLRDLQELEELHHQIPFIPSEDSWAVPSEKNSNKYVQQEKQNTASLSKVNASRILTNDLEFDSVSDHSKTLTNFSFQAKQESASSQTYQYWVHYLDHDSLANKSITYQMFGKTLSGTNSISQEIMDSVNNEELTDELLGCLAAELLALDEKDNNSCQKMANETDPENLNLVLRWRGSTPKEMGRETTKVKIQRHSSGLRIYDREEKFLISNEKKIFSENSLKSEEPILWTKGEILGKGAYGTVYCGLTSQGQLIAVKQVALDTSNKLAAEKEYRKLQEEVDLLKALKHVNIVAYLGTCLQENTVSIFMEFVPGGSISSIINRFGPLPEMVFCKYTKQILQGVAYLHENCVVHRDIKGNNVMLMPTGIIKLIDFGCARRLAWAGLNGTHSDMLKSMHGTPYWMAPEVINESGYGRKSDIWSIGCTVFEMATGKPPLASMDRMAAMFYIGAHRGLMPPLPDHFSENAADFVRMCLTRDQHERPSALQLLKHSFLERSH

[9] = system: Phosphatidylinositol 4,5-bisphosphate 3-kinase catalytic subunit alpha isoform (Homo sapiens), P42336 [C420R]; conditions: Compound concentration 1000.0 nM
Sequence of Phosphatidylinositol 4,5-bisphosphate 3-kinase catalytic subunit alpha isoform (Homo sapiens), P42336 [C420R] (P42336 whole entry C420R, canonical isoform): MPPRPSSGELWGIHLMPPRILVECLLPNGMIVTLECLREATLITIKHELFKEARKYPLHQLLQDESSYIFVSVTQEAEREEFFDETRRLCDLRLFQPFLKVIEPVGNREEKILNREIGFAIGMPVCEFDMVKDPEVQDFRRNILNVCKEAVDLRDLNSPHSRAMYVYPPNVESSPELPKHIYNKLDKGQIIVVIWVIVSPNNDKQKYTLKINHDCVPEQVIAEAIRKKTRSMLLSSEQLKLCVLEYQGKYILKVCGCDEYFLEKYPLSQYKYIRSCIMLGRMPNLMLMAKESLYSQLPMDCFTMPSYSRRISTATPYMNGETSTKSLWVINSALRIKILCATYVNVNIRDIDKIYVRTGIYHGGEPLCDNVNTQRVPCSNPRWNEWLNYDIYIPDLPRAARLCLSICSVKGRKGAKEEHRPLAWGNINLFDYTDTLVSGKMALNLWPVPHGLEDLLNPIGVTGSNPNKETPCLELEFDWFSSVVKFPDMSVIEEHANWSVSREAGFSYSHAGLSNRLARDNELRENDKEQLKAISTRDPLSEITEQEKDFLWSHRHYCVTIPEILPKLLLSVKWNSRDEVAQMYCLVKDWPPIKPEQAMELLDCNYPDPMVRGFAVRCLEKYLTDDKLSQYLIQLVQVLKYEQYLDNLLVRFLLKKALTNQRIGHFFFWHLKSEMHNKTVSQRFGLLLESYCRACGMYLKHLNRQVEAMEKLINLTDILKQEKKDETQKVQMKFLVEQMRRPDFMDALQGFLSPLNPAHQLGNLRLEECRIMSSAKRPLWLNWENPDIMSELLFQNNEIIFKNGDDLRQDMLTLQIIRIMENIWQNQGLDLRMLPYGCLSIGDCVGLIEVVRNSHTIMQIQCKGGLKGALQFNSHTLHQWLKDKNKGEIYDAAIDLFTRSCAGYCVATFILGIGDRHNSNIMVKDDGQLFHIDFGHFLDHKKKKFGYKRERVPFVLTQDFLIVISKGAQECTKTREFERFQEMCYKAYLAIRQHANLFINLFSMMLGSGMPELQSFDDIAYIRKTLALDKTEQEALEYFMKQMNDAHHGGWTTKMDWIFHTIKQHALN

[10] = biological target: Ribosomal protein S6 kinase alpha-1 (Homo sapiens) (UniProt Q15418); conditions: Compound concentration 1000.0 nM
[11] = biological target: Serine/threonine-protein kinase MRCK alpha (Homo sapiens) (UniProt Q5VT25); conditions: Compound concentration 1000.0 nM
[12] = biological target: Serine/threonine-protein kinase TAO1 (Homo sapiens) (UniProt Q7L7X3); conditions: Compound concentration 1000.0 nM
[13] = biological target: T1, 5-hydroxytryptamine receptor 1A (Homo sapiens) (UniProt P08908); conditions: Compound concentration 10.0 uM
T1 sequence (whole entry): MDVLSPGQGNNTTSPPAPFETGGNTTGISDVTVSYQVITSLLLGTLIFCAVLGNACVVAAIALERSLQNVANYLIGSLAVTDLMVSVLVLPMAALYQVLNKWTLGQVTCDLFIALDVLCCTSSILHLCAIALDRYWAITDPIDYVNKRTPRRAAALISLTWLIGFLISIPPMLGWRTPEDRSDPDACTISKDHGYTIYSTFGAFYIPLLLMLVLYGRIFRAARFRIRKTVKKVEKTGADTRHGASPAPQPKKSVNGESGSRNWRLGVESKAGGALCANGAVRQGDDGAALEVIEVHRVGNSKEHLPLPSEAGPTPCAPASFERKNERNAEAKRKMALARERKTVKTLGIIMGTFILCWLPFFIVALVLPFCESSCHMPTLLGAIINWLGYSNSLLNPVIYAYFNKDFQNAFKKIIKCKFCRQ

[14] = biological target: Tyrosine-protein kinase Fer (Homo sapiens) (UniProt P16591); conditions: Compound concentration 1000.0 nM
[15] = biological target: Ribosomal protein S6 kinase alpha-3 (Homo sapiens) (UniProt P51812); conditions: Compound concentration 1000.0 nM
[16] = biological target: Serine/threonine-protein kinase NLK (Homo sapiens) (UniProt Q9UBE8); conditions: Compound concentration 1000.0 nM
Sequence of Serine/threonine-protein kinase NLK (Homo sapiens) (Q9UBE8 whole entry): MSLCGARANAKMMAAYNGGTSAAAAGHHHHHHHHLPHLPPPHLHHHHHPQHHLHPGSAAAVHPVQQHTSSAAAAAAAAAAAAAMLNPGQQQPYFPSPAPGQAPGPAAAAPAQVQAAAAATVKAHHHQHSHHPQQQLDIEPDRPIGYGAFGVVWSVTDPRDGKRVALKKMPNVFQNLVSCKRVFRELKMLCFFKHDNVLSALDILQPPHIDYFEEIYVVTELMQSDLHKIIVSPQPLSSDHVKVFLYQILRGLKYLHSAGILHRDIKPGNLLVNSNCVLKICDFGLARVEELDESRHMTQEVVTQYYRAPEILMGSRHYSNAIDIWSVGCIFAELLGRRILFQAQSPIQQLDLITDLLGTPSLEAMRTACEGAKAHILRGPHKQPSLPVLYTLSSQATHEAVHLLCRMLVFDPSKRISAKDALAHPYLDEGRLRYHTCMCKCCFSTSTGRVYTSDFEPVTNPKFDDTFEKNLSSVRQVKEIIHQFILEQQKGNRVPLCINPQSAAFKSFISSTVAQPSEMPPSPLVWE

[17] = biological target: Serine/threonine-protein kinase PLK1 (Homo sapiens) (UniProt P53350); conditions: Compound concentration 1000.0 nM
Sequence of Serine/threonine-protein kinase PLK1 (Homo sapiens) (P53350 whole entry): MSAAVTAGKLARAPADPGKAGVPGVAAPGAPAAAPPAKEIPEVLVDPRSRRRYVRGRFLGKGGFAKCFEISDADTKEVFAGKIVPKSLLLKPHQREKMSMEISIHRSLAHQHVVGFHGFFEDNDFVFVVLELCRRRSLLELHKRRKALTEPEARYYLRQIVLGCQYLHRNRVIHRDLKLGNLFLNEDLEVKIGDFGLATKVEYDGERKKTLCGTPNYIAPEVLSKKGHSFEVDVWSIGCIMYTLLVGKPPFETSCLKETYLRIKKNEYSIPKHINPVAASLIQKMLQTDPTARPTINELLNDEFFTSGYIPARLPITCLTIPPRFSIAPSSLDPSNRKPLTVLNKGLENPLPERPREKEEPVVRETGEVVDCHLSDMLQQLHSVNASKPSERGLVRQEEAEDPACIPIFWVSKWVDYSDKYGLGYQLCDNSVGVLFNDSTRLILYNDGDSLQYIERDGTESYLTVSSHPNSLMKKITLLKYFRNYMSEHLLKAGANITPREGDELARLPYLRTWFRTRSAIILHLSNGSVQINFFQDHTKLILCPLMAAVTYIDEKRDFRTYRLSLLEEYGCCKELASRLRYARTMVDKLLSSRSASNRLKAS

[18] = system: Receptor-type tyrosine-protein kinase FLT3 (Homo sapiens), P36888 [D835V]; conditions: Compound concentration 1000.0 nM
[19] = biological target: Cyclin-dependent kinase 19 (Homo sapiens) (UniProt Q9BWU1); conditions: Compound concentration 1000.0 nM
Sequence of Cyclin-dependent kinase 19 (Homo sapiens) (Q9BWU1 whole entry): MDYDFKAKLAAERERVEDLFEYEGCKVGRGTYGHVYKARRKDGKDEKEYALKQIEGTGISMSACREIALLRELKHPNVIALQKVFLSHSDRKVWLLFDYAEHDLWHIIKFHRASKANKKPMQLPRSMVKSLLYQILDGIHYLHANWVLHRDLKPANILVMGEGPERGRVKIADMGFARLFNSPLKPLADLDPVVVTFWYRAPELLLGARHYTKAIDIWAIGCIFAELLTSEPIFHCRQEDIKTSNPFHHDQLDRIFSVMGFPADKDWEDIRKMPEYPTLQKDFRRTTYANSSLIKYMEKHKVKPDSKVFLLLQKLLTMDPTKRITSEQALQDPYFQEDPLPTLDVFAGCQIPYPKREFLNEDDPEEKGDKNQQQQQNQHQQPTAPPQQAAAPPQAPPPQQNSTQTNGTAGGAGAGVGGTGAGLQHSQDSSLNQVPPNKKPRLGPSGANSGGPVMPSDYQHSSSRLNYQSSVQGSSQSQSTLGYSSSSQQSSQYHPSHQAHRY

[20] = system: Mast/stem cell growth factor receptor Kit (Homo sapiens), P10721 [V559D,T670I]; conditions: Compound concentration 1000.0 nM
[21] = biological target: Cyclin-dependent kinase 14 (Homo sapiens) (UniProt O94921); conditions: Compound concentration 1000.0 nM
[22] = biological target: Casein kinase I isoform alpha-like (Homo sapiens) (UniProt Q8N752); conditions: Compound concentration 1000.0 nM
Sequence of Casein kinase I isoform alpha-like (Homo sapiens) (Q8N752 whole entry, canonical isoform): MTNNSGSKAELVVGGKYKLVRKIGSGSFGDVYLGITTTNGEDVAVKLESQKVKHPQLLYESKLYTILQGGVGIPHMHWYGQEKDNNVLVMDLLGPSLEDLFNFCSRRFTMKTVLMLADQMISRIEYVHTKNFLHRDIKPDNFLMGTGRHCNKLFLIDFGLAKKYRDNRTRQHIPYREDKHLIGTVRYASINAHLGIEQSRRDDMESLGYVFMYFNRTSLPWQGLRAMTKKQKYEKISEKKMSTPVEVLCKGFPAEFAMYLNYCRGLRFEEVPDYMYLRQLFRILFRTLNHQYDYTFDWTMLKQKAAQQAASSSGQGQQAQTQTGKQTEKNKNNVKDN

[23] = biological target: Serine/threonine-protein kinase 17A (Homo sapiens) (UniProt Q9UEE5); conditions: Compound concentration 1000.0 nM
[24] = biological target: cGMP-dependent protein kinase 1 (Homo sapiens) (UniProt Q13976); conditions: Compound concentration 1000.0 nM
[25] = biological target: Homeodomain-interacting protein kinase 2 (Homo sapiens) (UniProt Q9H2X6); conditions: Compound concentration 1000.0 nM
[26] = biological target: Fibroblast growth factor receptor 4 (Homo sapiens) (UniProt P22455); conditions: Compound concentration 1000.0 nM
[27] = biological target: Myosin light chain kinase 2, skeletal/cardiac muscle (Homo sapiens) (UniProt Q9H1R3); conditions: Compound concentration 1000.0 nM
[28] = biological target: cAMP-dependent protein kinase catalytic subunit beta (Homo sapiens) (UniProt P22694); conditions: Compound concentration 1000.0 nM
[29] = biological target: Bone morphogenetic protein receptor type-2 (Homo sapiens) (UniProt Q13873); conditions: Compound concentration 1000.0 nM
[30] = system: Phosphatidylinositol 4,5-bisphosphate 3-kinase catalytic subunit alpha isoform (Homo sapiens), P42336 [H1047Y]; conditions: Compound concentration 1000.0 nM
[31] = biological target: Serine/threonine-protein kinase DCLK3 (Homo sapiens) (UniProt Q9C098); conditions: Compound concentration 1000.0 nM
[32] = biological target: Cyclin-dependent kinase 4 (Homo sapiens) (UniProt P11802); conditions: Compound concentration 1000.0 nM
[33] = biological target: T2, D(4) dopamine receptor (Homo sapiens) (UniProt P21917); conditions: Compound concentration 10.0 uM
T2 sequence (whole entry): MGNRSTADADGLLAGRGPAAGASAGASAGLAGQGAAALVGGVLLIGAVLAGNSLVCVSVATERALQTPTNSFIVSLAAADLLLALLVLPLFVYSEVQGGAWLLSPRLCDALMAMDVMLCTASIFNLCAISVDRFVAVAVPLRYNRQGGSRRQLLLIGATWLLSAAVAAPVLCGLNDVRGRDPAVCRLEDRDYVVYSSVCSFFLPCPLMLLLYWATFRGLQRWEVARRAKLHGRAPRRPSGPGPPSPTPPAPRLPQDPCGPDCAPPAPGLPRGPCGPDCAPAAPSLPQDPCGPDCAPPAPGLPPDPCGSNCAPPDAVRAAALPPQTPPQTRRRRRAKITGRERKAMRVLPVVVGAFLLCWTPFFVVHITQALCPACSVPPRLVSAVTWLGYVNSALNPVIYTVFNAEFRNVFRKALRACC

[34] = system: Receptor-type tyrosine-protein kinase FLT3 (Homo sapiens), P36888 [D835H]; conditions: Compound concentration 1000.0 nM

CS(=O)(=O)NCC[C@H](NC(=O)c1cncc2c1cnn2-c1ccc(F)cc1)c1ccnc(S(C)(=O)=O)c1 [BI 9307]
inactive: residual activity [1] 100% | residual activity [2] 97% | residual activity [3] 100% | residual activity [4] 99% | residual activity [5] 100% | residual activity [6] 100% | residual activity [7] 80% | residual activity [8] 98% | residual activity [9] 98% | residual activity [10] 100% | residual activity [11] 100% | residual activity [12] 82% | inhibition [13] 13.3% | residual activity [14] 100% | residual activity [15] 98% | residual activity [16] 100% | residual activity [17] 100% | residual activity [18] 100% | residual activity [19] 80% | residual activity [20] 100% | residual activity [21] 100% | residual activity [22] 94% | residual activity [23] 100% | residual activity [24] 96% | residual activity [25] 100% | residual activity [26] 100% | residual activity [27] 93% | residual activity [28] 100% | residual activity [29] 100% | residual activity [30] 100% | residual activity [31] 93% | residual activity [32] 95% | inhibition [33] -5.61% | residual activity [34] 100%

CS(=O)(=O)c1cc(C2(NC(=O)c3cncc4c3cnn4-c3ccc(F)cc3)CC2)ccn1 [BI 639667]
inactive: residual activity [1] 100% | residual activity [2] 100% | residual activity [3] 100% | residual activity [4] 83% | residual activity [5] 99% | residual activity [6] 100% | residual activity [7] 100% | residual activity [8] 91% | residual activity [9] 83% | residual activity [10] 79% | residual activity [11] 100% | residual activity [12] 94% | inhibition [13] -9.71% | residual activity [14] 100% | residual activity [15] 100% | residual activity [16] 100% | residual activity [17] 90% | residual activity [18] 100% | residual activity [19] 91% | residual activity [20] 84% | residual activity [21] 100% | residual activity [22] 100% | residual activity [23] 84% | residual activity [24] 100% | residual activity [25] 100% | residual activity [26] 74% | residual activity [27] 100% | residual activity [28] 100% | residual activity [29] 99% | residual activity [30] 100% | residual activity [31] 100% | residual activity [32] 100% | inhibition [33] -1.14% | residual activity [34] 100%
